From patent US20260001893A1, “SMALL MOLECULE MODULATORS OF STAT6” (Gilead Sciences, Inc., priority 2024, published 2026)

system: Eotaxin-3 (CCL26) release in human whole blood stimulated with IL-4; experiment: Human whole blood eotaxin-3 assay (IL-4 stimulated eotaxin-3 release); assay type: cell-based; details: Homo sapiens, 48 h, human whole blood stimulated with recombinant human IL-4, 48 h; given for test compounds with <80% Emax; geometric mean
Protocol: Human Whole Blood Eotaxin-3 Assay
This was a human whole blood assay using recombinant human Interleukin 4 to stimulate the blood and measuring the ability of the test compounds to inhibit eotaxin-3 release. The biological activities of the test compounds have been tested in human whole blood stimulated with IL-4 measuring Eotaxin-3 release. The test compounds were added to 384 well clear flat-bottom plate in a 4-fold serial dilution in triplicates using a liquid handler. Human whole blood stabilized in lithium-heparin tubes was added in a volume of 65 μL per well, resulting in a final DMSO concentration of 0.5%. The plate is incubated for 2 h at 37° C. under 5% CO2/95% air. Subsequently, 5 μL of recombinant human IL-4 (R&D Systems, cat #204-ILB) was added to the wells to a final concentration of […]. The plate was incubated for 48 h at 37° C. under 5% CO2/95% air. The plate was spun down for 10 minutes at 500×g and 20 μL supernatant was harvested and transferred to a 384 well v-bottom plate using a liquid handler and stored at −20° C. until further analysis. 10 μL supernatant was used to measure the level of Eotaxin-3 (CCL26) using Human Eotaxin-3 MSD kit from Mesocsale (Cat #K251UEK-4). The assay was performed according to the manufacture instructions.
The data from the human whole blood eotaxin-3 assay is shown below for Examples 1ab3, 1ab6, 1d23, and 1d4 (where the effect in % is plotted against the test concentration in M on a log-scale).

SMILES | Emax
CNc1ccn(-c2ccnc3c2cc(CN2CC[C@@H](c4ccc(C(=O)N(C)C)cc4)C[C@@H]2C)n3C)c(=O)c1 (single isomer, unassigned) [Example 1d40] | < 20%
C[C@H](c1cc2c(-n3ccc(N)c(F)c3=O)ccnc2n1C)N1CC=C(c2ccc(C(=O)N(C)C)cn2)CC1 (single isomer, unassigned) [Example 1m76] | < 20%
CNc1ccn(-c2ccnc3c2cc([C@H](C)N2CC=C(c4c(C)cc(C(=O)N(C)C)nc4C)CC2)n3C)c(=O)c1 (single isomer, unassigned) [Example 1m99] | < 20%
Cc1cc(C(=O)N(C)C)cc(F)c1C1CCN([C@H](C)c2cc3c(-n4ccc5c(c4=O)CCN5)ccnc3n2C)CC1 (single isomer, unassigned) [Example 1m120] | 40 to 50%

same assay, conditions: Homo sapiens, 48 h, human whole blood stimulated with recombinant human IL-4, 48 h; inhibition of eotaxin-3 release; given for test compounds with >80% Emax; geometric mean

SMILES | EC50
C[C@@H](c1cc2c(-n3ccc(N)c(F)c3=O)ccnc2n1C)N1CC=C(c2ccc(C(=O)N(C)C)cn2)CC1 (single isomer, unassigned) [Example 1m77] | 0.524 µM
Cc1cc(C(=O)N(C)C)cc(F)c1C1CCN([C@@H](C)c2cc3c(-n4ccc5c(c4=O)CCN5)ccnc3n2C)CC1 (single isomer, unassigned) [Example 1m121] | 0.0164 µM
CNc1ccn(-c2ccnc3c2cc([C@@H](C)N2CC[C@@H](c4c(C)cc(C(=O)N(C)C)cc4F)C(F)(F)C2)n3C)c(=O)c1 (single isomer, unassigned) [Example 1m143] | 0.855 µM
[2H]C([2H])([2H])N(C(=O)c1cc(C)c(C2=CCN(Cc3cc4c(-n5ccc(N)cc5=O)ccnc4n3C)CC2)c(F)c1)C([2H])([2H])[2H] [Example 1ad5, 4-[1-[[4-(4-Amino-2-oxo-1-pyridyl)-1-methyl-pyrrolo[2,3-b]pyridin-2-yl]methyl]-3,6-dihydro-2H-pyridin-4-yl]-3-fluoro-5-methyl-N,N-bis(trideuteriomethyl)-benzamide] | 0.00521 µM
[2H]C([2H])([2H])N(C(=O)c1cc(C)c(C2=CCN(Cc3cc4c(-n5ccc6c(c5=O)CCN6)ccnc4n3C)CC2)c(F)c1)C([2H])([2H])[2H] [Example 1ad7, 3-Fluoro-5-methyl-N,N-bis(methyl-d3)-4-(1-((1-methyl-4-(4-oxo-1,2,3,4-tetrahydro-5H-pyrrolo[3,2-c]pyridin-5-yl)-1H-pyrrolo[2,3-b]pyridin-2-yl)methyl)-1,2,3,6-tetrahydropyridin-4-yl)benzamide] | 0.0068 µM
Cc1cc(C(=O)N(C)C)cc(F)c1C1=CCN(Cc2cc3c(-n4cc(F)c(N)cc4=O)ccnc3n2C)CC1 [Example 1ad10, 4-(1-((4-(4-amino-5-fluoro-2-oxopyridin-1 (2H)-yl)-1-methyl-1H-pyrrolo[2,3-b]pyridin-2-yl)methyl)-1,2,3,6-tetrahydropyridin-4-yl)-3-fluoro-N,N,5-trimethylbenzamide] | 0.0122 µM

The next lines start with the values.

EC50 | SMILES
0.15 µM | CNc1ccn(-c2ccnc3c2cc(CN2CC[C@@H](c4ccc(C(=O)N(C)C)cc4)C[C@H]2C)n3C)c(=O)c1 (single isomer, unassigned) [Example 1d42]
0.0219 µM | CNc1ccn(-c2ccnc3c2cc(CN2CCC(c4ccc(C(=O)N(C)C)cc4)C[C@@H]2C)n3C)c(=O)c1 (single isomer, unassigned) [Example 1d43]
0.44 µM | CNc1ccn(-c2ccnc3c2cc([C@@H](C)N2CC=C(c4c(C)cc(C(=O)N(C)C)nc4C)CC2)n3C)c(=O)c1 (single isomer, unassigned) [Example 1m100]
0.0806 µM | CNc1ccn(-c2ccnc3c2cc([C@@H](C)N2CC=C(c4c(C)cc(C(=O)N(C)C)cc4F)CC2)n3C)c(=O)c1 (single isomer, unassigned) [Example 1m105]
2.9 µM | CN(C)C(=O)c1cc(F)c(C2=CCN(Cc3cc4c(-n5ccc6c(c5=O)CCN6)ccnc4n3C)CC2)cc1C1CC1 (single isomer, unassigned) [Example 1m134, 2-cyclopropyl-5-fluoro-N,N-dimethyl-4-(1-((1-methyl-4-(4-oxo-1,2,3,4-tetrahydro-5H-pyrrolo[3,2-c]pyridin-5-yl)-1H-pyrrolo[2,3-b]pyridin-2-yl)methyl)-1,2,3,6-tetrahydropyridin-4-yl)benzamide]
0.0121 µM | CN(C)C(=O)c1cc(F)c(C2=CCN(Cc3cc4c(-n5ccc6c(c5=O)CCN6)ccnc4n3C)CC2)c(C2CC2)c1 (single isomer, unassigned) [Example 1m135, 3-cyclopropyl-5-fluoro-N,N-dimethyl-4-(1-((1-methyl-4-(4-oxo-1,2,3,4-tetrahydro-5H-pyrrolo[3,2-c]pyridin-5-yl)-1H-pyrrolo[2,3-b]pyridin-2-yl)methyl)-1,2,3,6-tetrahydropyridin-4-yl)benzamide]
2.17 µM | CNc1ccn(-c2ccnc3c2cc([C@@H](C)N2CC[C@H](c4c(C)cc(C(=O)N(C)C)cc4F)C(F)(F)C2)n3C)c(=O)c1 (single isomer, unassigned) [Example 1m144]
0.279 µM | CNc1ccn(-c2ccnc3c2cc(CN2CCC(c4ccc(C(=O)N(C)C)cc4)C[C@H]2C)n3C)c(=O)c1 (stereo in doubt) [Example 1d41, N,N-dimethyl-4-[(2R,4S)-2-methyl-1-[[1-methyl-4-[4-(methylamino)-2-oxo-1-pyridyl]pyrrolo[2,3-b]pyridin-2-yl]methyl]-4-piperidyl]benzamide]
1.53 µM | Cc1cc(C(=O)N(C)C)ccc1C1=CCN(Cc2cc3c(-n4ncc(N)cc4=O)ccnc3n2C)CC1 [Example 1ab5, 4-(1-((4-(4-Amino-6-oxopyridazin-1 (6H)-yl)-1-methyl-1H-pyrrolo[2,3-b]pyridin-2-yl)methyl)-1,2,3,6-tetrahydropyridin-4-yl)-N,N,3-trimethylbenzamide]
0.00609 µM | Cc1cc(C(=O)N(C)C)cc(F)c1C1=CCN(Cc2cc3c(-n4ccc(N)cc4=O)ccnc3n2C)CC1 [Example 1ad6, 4-[1-[[4-(4-Amino-2-oxo-1-pyridyl)-1-methyl-pyrrolo[2,3-b]pyridin-2-yl]methyl]-3,6-dihydro-2H-pyridin-4-yl]-3-fluoro-N,N,5-trimethyl-benzamide]
0.0089 µM | [2H]C([2H])([2H])N(C(=O)c1cc(C)c(C2=CCN(Cc3cc4c(-n5ccc(NC)cc5=O)ccnc4n3C)CC2)c(F)c1)C([2H])([2H])[2H] [Example 1ad8, 3-Fluoro-5-methyl-N,N-bis(methyl-d3)-4-(1-((1-methyl-4-(4-(methylamino)-2-oxopyridin-1 (2H)-yl)-1H-pyrrolo[2,3-b]pyridin-2-yl)methyl)-1,2,3,6-tetrahydropyridin-4-yl)benzamide]

same assay, conditions: human whole blood stimulated with recombinant human IL-4, 48 h; inhibition of eotaxin-3 release; given for test compounds with >80% Emax; geometric mean

EC50 | SMILES
0.61 µM | CNc1ccn(-c2ccnc3c2cc([C@@H](C)N2CC[C@H](c4c(C)cc(C(=O)N(C)C)cc4F)C(F)(F)C2)n3C)c(=O)c1 (single isomer, unassigned) [Example 1m141]
0.0136 µM | CNc1ccn(-c2ccnc3c2cc([C@H](C)N2CC[C@@H](c4c(C)cc(C(=O)N(C)C)cc4F)C(F)(F)C2)n3C)c(=O)c1 (stereo in doubt) [Example 1m142, 4-((S)-3,3-difluoro-1-((S)-1-(1-methyl-4-(4-(methylamino)-2-oxopyridin-1 (2H)-yl)-1H-pyrrolo[2,3-b]pyridin-2-yl)ethyl)piperidin-4-yl)-3-fluoro-N,N,5-trimethylbenzamide]
